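Cells were grown in 96-well plates and exposed to each compound for 48 hours at five concentrations; endpoints were interpolated linearly between bracketing concentrations, or set to the highest concentration if not reached. Here, GI50 denotes the concentration required for 50% inhibition of growth. TGI denotes the concentration required for complete inhibition of growth.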
Legend:
Experiment in all cases: NCI-60 cell line screen, 48 h
BT-549 breast = tested on: BT-549 breast
CAKI-1 renal = tested on: CAKI-1 renal
HT29 colon = tested on: HT29 colon
NCI-H23 lung = tested on: NCI-H23 lung
RPMI-8226 leukemia = tested on: RPMI-8226 leukemia
SR leukemia = tested on: SR leukemia
TK-10 renal = tested on: TK-10 renal
UACC-257 melanoma = tested on: UACC-257 melanoma
DLD-1 colon = tested on: DLD-1 colon
KM20L2 colon = tested on: KM20L2 colon

| Compound | GI50 (BT-549 breast) [µM] | TGI (BT-549 breast) [µM] | GI50 (CAKI-1 renal) [µM] | TGI (CAKI-1 renal) [µM] | GI50 (HT29 colon) [µM] | TGI (HT29 colon) [µM] | GI50 (NCI-H23 lung) [µM] | TGI (NCI-H23 lung) [µM] | GI50 (RPMI-8226 leukemia) [µM] | TGI (RPMI-8226 leukemia) [µM] | GI50 (SR leukemia) [µM] | GI50 (TK-10 renal) [µM] | TGI (TK-10 renal) [µM] | GI50 (UACC-257 melanoma) [µM] | TGI (UACC-257 melanoma) [µM] | TGI (DLD-1 colon) [µM] | TGI (KM20L2 colon) [µM] | TGI (SR leukemia) [µM] |
| --- | --- | --- | --- | --- | --- | --- | --- | --- | --- | --- | --- | --- | --- | --- | --- | --- | --- | --- |
| O=C1/C=C/[C@@H](O)[C@@H]2C[C@@H](O)C[C@H]2/C=C/CCC[C@H](CCO)O1 | 0.33 | > 31.5 | 0.324 | 3.43 | 0.0841 | 1.31 | 0.227 | 2.3 | 0.33 | 6.34 | 0.297 | 0.245 | 0.832 | 0.0609 | > 100 |  |  |  |
| CC1(c2ccc(F)cc2)C2C(=O)NC(=O)C1C(=O)NC2=O (stereo unspecified) |  |  |  | > 100 |  | > 100 |  | > 100 |  | > 100 |  |  | > 100 |  | > 100 | > 100 | > 100 |  |
| COc1cc2ncnc(Oc3ccc(NC(=O)Nc4ccc(CN5CCOCC5)c(C(F)(F)F)c4)c4ccccc34)c2cc1OC | 1.11 | 5.28 | 0.454 | 3.16 | 0.547 | 10.3 | 0.785 | 4.16 | 0.297 | 2.02 | 0.752 | 0.445 | 6.95 | 0.964 | 4.12 |  |  | 6.02 |
| Cc1cc(I)cc(CN(C)CCCN2CCC(C)CC2)c1O | 11.2 | 23.8 | 13.5 | 28.7 | 9.02 | 21.3 | 15.4 | 33.7 | 12.6 | 32 | 11.5 | 14.7 | 29.2 | 11.8 | 25.3 |  |  | 32.2 |
| CC1C(c2ccccc2)N(C)C(c2ccccc2)C(C)C1(O)c1ccccc1 (stereo unspecified) |  |  |  | > 100 |  | > 100 |  | > 100 |  |  |  |  | > 100 |  | > 100 | > 100 | > 100 |  |
| C[C@@H]1CC[C@@H]2[C@@H]1[C@H](OC(=O)/C=C/C1CCCCC1)[C@]1(C3CCCCC3)C[C@@H](OC(=O)CO)[C@@]2(C)O1 | 0.0551 | 5.7 | 0.034 | 14.8 | 13.1 | 26.7 | 16.6 | 31.7 | 15.2 | 34.5 | 14 | 15.8 | 29.5 | 15.8 | 29.6 |  |  | 32.9 |
| OC(c1cc(C(F)(F)F)nc2c(Cl)cc(Cl)cc12)C1CCCCN1 (stereo unspecified) |  | 28.2 |  | 21.2 |  | > 38.9 |  | 23.8 |  | 9.19 |  |  | > 32.8 |  | > 38.8 |  |  | 5.32 |
| NC1CC(=O)c2c(-c3cccs3)sc(-c3cccs3)c21 (stereo unspecified) | 19.5 | 63.8 | 33.4 | > 100 | 19.5 | 50.1 | 23.1 | 57.6 | 12.3 | 49.7 | 7.03 | 16.3 | 40.3 | 52.3 | > 100 |  |  | > 100 |
| CC1(C)OCC2OC(n3cnc4c(N)nc(Cl)nc43)C(OS(C)(=O)=O)C2O1 (stereo unspecified) |  | > 100 |  | > 100 |  | > 100 |  | > 100 |  | > 100 |  |  | > 100 |  | > 100 |  |  | > 100 |
| O=C(CC12C3C4C1C1C2C3C41CC(=O)NO)NO (stereo unspecified) |  |  |  | > 100 |  | 88.7 |  | > 100 |  | > 100 |  |  | > 100 |  | 64.3 | > 100 | > 100 | > 100 |
| Clc1cnc(Nc2ccc(OCCN3CCCC3)cc2)nc1NCc1ccco1 | 2.29 | 7.47 | 1.63 | 26.6 | 2.19 | 9.18 | 1.84 | 5.75 | 2.25 | 5.49 | 1.4 | 2.28 | 11.8 | 2.44 | 6.32 |  |  | 6.61 |
| O=C(NC1CCC[C@H]1OC(=O)c1ccccc1)c1ccccc1 (stereo partly specified) |  |  |  | > 100 |  | > 100 |  | > 100 |  |  |  |  | > 100 |  | > 100 | > 100 |  | > 100 |
| COc1cc(OC)c(/C=C/C(=O)c2c(OC)cc(OC)cc2OC)c(OC)c1 | 0.931 | > 24.5 | 1.66 | > 37.2 | 0.381 | 2.1 | 1.35 | 6.67 | 0.566 | 3.03 | 0.206 | 3.31 | > 100 | 3.58 | > 100 |  |  | 0.761 |
| CC1Cc2c(Cl)ncnc2N(C)c2ccccc21 (stereo unspecified) | 5 | 33.9 | 3.39 | > 100 | 2.47 | 7.27 | 2.82 | 10.9 | 3.54 | 16.4 | 3.33 | 2.57 | 8.87 | 3.76 | 21 |  |  | 32.6 |
| COc1c(C(N)=O)cc(-c2ccc(Cl)cc2)cc1-c1ccc(S(N)(=O)=O)cc1 | 10.5 | > 25 | 10.9 | > 25 | 11 | > 25 | > 18.3 | > 25 | 9.13 | > 25 | 6 | 6.65 | 18.8 | 8.72 | > 25 |  |  | 15.7 |
| CCO/C=C\C12CCCC1NC(c1ccccc1)(c1ccccc1)O2 (stereo unspecified) |  |  |  | 65.6 |  | 57.8 |  | 80.2 |  |  |  |  | > 100 |  | 85.5 | > 100 | 57.9 |  |
| COc1ccc2c3ccnc(C(F)(F)F)c3n(CCCCN)c2c1 | 3.04 | 12.5 | 4.66 | 21.4 | 4.01 | 15.8 | 8.65 | 22.2 | 3.05 | 15.8 | 2.64 | 7.06 | 19.3 | 3.02 | 8.41 |  |  | 9.52 |
| Nc1nc2cc(Cl)ccc2n1N |  | > 100 |  | > 100 |  | > 100 |  | > 100 |  | > 100 |  |  | > 100 |  | > 100 |  |  | > 100 |
